Experimental data published in the NIST ThermoML archive (doi:10.1016/j.tca.2006.04.001).

Conditions: Liquid, Pycnometric method

CCCCCCCCCCCCCCCCCCC [nonadecane]
Conditions	specific volume [m3/kg]
305.45 K	0.0013
307.55 K	0.001303
309.55 K	0.001304
311.65 K	0.001304
313.65 K	0.001307
315.75 K	0.001309
317.75 K	0.001311
319.85 K	0.001313
321.95 K	0.001316
323.95 K	0.001319
326.05 K	0.001322
328.05 K	0.001321
330.15 K	0.001324
332.25 K	0.001327
334.25 K	0.001329
336.35 K	0.001331
338.35 K	0.001335
340.45 K	0.001337
342.55 K	0.001339
344.55 K	0.001338
346.65 K	0.001344
348.65 K	0.001345
350.75 K	0.001346
352.85 K	0.001348
354.85 K	0.001353
356.95 K	0.001355
358.95 K	0.001357
361.05 K	0.001359
363.15 K	0.001362
365.15 K	0.001365
367.25 K	0.001368
369.25 K	0.00137
371.35 K	0.001373
373.45 K	0.001374
375.45 K	0.001376
377.55 K	0.001379
379.55 K	0.001382
381.65 K	0.001385
383.75 K	0.001389
385.75 K	0.001391
387.85 K	0.001394
389.85 K	0.001396
391.95 K	0.001401
393.95 K	0.001404
396.05 K	0.001405
398.15 K	0.001405
400.15 K	0.00141
402.25 K	0.001412
404.25 K	0.001415
406.35 K	0.001418
408.45 K	0.001422
410.45 K	0.001426
412.55 K	0.001429
414.55 K	0.001434
416.65 K	0.001436
418.75 K	0.001439
420.75 K	0.001439
422.85 K	0.001442
424.85 K	0.001447
426.95 K	0.00145
429.05 K	0.001452
431.05 K	0.001456
433.15 K	0.001457
435.15 K	0.001461
437.25 K	0.001464
439.35 K	0.001466
441.35 K	0.001469
443.45 K	0.001475
445.45 K	0.001479
447.55 K	0.001481
449.65 K	0.001485
451.65 K	0.001485
453.75 K	0.001492
455.75 K	0.001495
457.85 K	0.001498
459.95 K	0.001504
461.95 K	0.001506
464.05 K	0.001508
466.05 K	0.001514
468.15 K	0.001514
470.25 K	0.00152
472.25 K	0.001523
474.35 K	0.001527
476.35 K	0.00153
478.45 K	0.001533
480.45 K	0.001536
482.55 K	0.001543
484.65 K	0.001546
486.65 K	0.001549
488.75 K	0.001549
490.75 K	0.001557
492.85 K	0.00156
494.95 K	0.001563
496.95 K	0.001566
499.05 K	0.001569
501.05 K	0.001575
503.15 K	0.001578
505.25 K	0.001582
507.25 K	0.001586
509.35 K	0.001592
511.35 K	0.001594
513.45 K	0.001599
515.55 K	0.001604
517.55 K	0.001609
519.65 K	0.001609
521.65 K	0.001615
523.75 K	0.00162
525.85 K	0.001625
531.35 K	0.001634
533.25 K	0.001639
535.25 K	0.001641
537.15 K	0.001646
539.15 K	0.001649
541.05 K	0.001653
543.05 K	0.001659
544.95 K	0.001663
546.85 K	0.001667
548.85 K	0.00167
550.75 K	0.001676
552.75 K	0.00168
554.65 K	0.001683
556.65 K	0.001687
558.55 K	0.001692
560.45 K	0.001697
562.45 K	0.001702
564.35 K	0.001707
566.35 K	0.001711
568.25 K	0.001717
570.25 K	0.001722
572.15 K	0.001725
574.05 K	0.001732
576.05 K	0.001737
